The results in this text go back to ChEMBL document CHEMBL1131353, “Structurally similar small molecule photoaffinity CCK-A agonists and antagonists as novel tools for directly probing 7TM receptors-ligand interactions” (Bioorg Med Chem Lett, 1998).

For test [1], the species on record is Rattus norvegicus. The test can be described thus: Compound was tested in vitro for its ability to stimulate dispersed rat pancreatic acini to secrete amylase into the medium using CCK-8 as an agonist control. The class given is functional.
Test [2] has as its target T1, Cholecystokinin receptor type A (Rattus norvegicus, UniProt P30551).
T1 sequence (P30551 whole entry): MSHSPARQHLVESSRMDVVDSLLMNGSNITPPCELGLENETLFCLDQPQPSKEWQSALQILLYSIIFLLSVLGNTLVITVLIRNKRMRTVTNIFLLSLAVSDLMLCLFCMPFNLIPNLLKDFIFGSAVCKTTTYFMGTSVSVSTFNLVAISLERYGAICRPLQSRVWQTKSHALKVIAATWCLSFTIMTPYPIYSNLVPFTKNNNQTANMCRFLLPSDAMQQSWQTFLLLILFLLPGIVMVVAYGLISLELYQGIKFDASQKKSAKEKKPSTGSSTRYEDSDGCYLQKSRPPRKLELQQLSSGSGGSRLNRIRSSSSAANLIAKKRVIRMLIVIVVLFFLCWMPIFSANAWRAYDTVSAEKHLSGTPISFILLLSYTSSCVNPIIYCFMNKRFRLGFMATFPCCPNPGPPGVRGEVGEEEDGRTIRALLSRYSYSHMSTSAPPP
The test can be described thus: Displacement of 125I]-D-Tyr-Gly-[(Nle28,31)CCK-26-33] from rat cell membrane Cholecystokinin type A receptor.

The species named for test [3] is Rattus norvegicus. Briefly: Compound was tested in vitro for its ability to stimulate dispersed rat pancreatic acini to secrete amylase into the medium using CCK-8 as an agonist control; no activity detected at maximum concentration. The class given is functional.
Test [4] concerns the target T2, Cholecystokinin receptor type A (Rattus norvegicus) (UniProt P30551).
T2 sequence (whole entry): T1 sequence (P30551 whole entry)
Briefly: In vitro efficacy was measured in rat Cholecystokinin type A receptor at 1.0 uM.

For `CSCC[C@H](NC(=O)[C@H](Cc1ccc(OS(=O)(=O)O)cc1)NC(=O)[C@@H](N)CC(=O)O)C(=O)NCC(=O)N[C@@H](Cc1c[nH]c2ccccc12)C(=O)N[C@@H](CCSC)C(=O)N[C@@H](CC(=O)O)C(=O)N[C@@H](Cc1ccccc1)C(N)=O` [SINCALIDE], in the test filed under Rattus norvegicus [1], the EC50 is 0.014 nM.

For the molecule `CN(C(=O)CN1C(=O)C(NC(=O)Nc2cccc(C3(C(F)(F)F)N=N3)c2)C(=O)N(c2ccccc2)c2ccccc21)c1ccccc1` (centres undefined), the IC50 in test [2] amounted to 310 nM. The 50% effective concentration (EC50) result in the test filed under Rattus norvegicus [3] is reported as “Not Active”.

With `CC(C)N(C(=O)CN1C(=O)C(NC(=O)Nc2cccc(C(=O)c3ccccc3)c2)C(=O)N(c2ccccc2)c2ccccc21)c1ccccc1` (centres undefined), the IC50 in test [2] was found to be 160 nM. The Efficacy in test [4] is 64%. Further, the midpoint of the response in the test listed under Rattus norvegicus [1], the EC50, lay at 730 nM.

In test [2], `COc1ccc(N(C)C(=O)CN2C(=O)C(NC(=O)Nc3cccc(C4(C(F)(F)F)N=N4)c3)C(=O)N(c3ccccc3)c3ccccc32)cc1` (centres undefined) returned an IC50 of 410 nM. Moreover, in the test filed under Rattus norvegicus [3], the EC50 result is “Not Active”.

`COc1ccc(N(C(=O)CN2C(=O)C(NC(=O)Nc3cccc(C4(C(F)(F)F)N=N4)c3)C(=O)N(c3ccccc3)c3ccccc32)C(C)C)cc1` (centres undefined) returned an IC50 in test [2] of 440 nM. In test [4], this molecule registered an Efficacy of 75%. In the test filed under Rattus norvegicus [1], this molecule returned an EC50 of 600 nM.

`CC(C)N(C(=O)CN1C(=O)C(NC(=O)Nc2ccccc2)C(=O)N(c2ccccc2)c2ccccc21)c1ccccc1` (centres undefined): the Efficacy in test [4] was 83%. This molecule also gave a 50% effective concentration (EC50) in the test filed under Rattus norvegicus [1] of 40 nM.

As for `COc1ccc(N(C)C(=O)CN2C(=O)C(NC(=O)Nc3ccccc3)C(=O)N(c3ccccc3)c3ccccc32)cc1` (centres undefined), in test [2], the IC50 was determined as 390 nM.

As to `CC(C)N(C(=O)CN1C(=O)C(NC(=O)Nc2cccc(C3(C(F)(F)F)N=N3)c2)C(=O)N(c2ccccc2)c2ccccc21)c1ccccc1` (centres undefined), the half-inhibitory concentration (IC50) in test [2] is 1300 nM. The molecule also came in with an Efficacy in test [4] of 47%. The molecule further registered an EC50 in the test filed under Rattus norvegicus [1] of 930 nM.

In test [2], `COc1ccc(N(C(=O)CN2C(=O)C(NC(=O)Nc3ccccc3)C(=O)N(c3ccccc3)c3ccccc32)C(C)C)cc1` (centres undefined) registered an IC50 of 50 nM.

As to `COc1ccc(N(C)C(=O)CN2C(=O)C(NC(=O)Nc3cccc(C(=O)c4ccccc4)c3)C(=O)N(c3ccccc3)c3ccccc32)cc1` (centres undefined), the 50% inhibitory concentration (IC50) in test [2] worked out at 350 nM. In addition, the EC50 entry in the test filed under Rattus norvegicus [3] is “Not Active”.

In turn, `COc1ccc(N(C(=O)CN2C(=O)C(NC(=O)Nc3cccc(C(=O)c4ccccc4)c3)C(=O)N(c3ccccc3)c3ccccc32)C(C)C)cc1` (centres undefined) returned an IC50 in test [2] of 80 nM. The same molecule gave an Efficacy in test [4] of 68%. This molecule came in with a concentration for a half-maximal effect (EC50) in the test listed under Rattus norvegicus [1] of 460 nM.

Consider `CN(C(=O)CN1C(=O)C(NC(=O)Nc2cccc(C(=O)c3ccccc3)c2)C(=O)N(c2ccccc2)c2ccccc21)c1ccccc1` (centres undefined), for which the IC50 in test [2] was 290 nM.

As a reminder, the EC50 is the midpoint of the concentration-response curve. Low readings indicate higher potency in that assay, high ones lower potency in that assay. The term IC50 denotes the concentration at which inhibition is half-maximal.
